The term IC50 denotes the concentration at which inhibition is half-maximal. Higher therefore signals weaker potency in that assay.

From ChEMBL document CHEMBL4130616, “Bastimolide B, an Antimalarial 24-Membered Marine Macrolide Possessing a tert-Butyl Group” (J Nat Prod, 2018) come the findings set out here.

The first test relates to Plasmodium falciparum. Kind of test: Antimalarial activity against chloroquine-sensitive Plasmodium falciparum HB3 by pico-green dye based fluorescence assay. The test is classed as functional, organism-based.
Details: not given
Compound `C/C1=C/C(=O)O[C@H](C(C)(C)C)CCC[C@H](O)CCC[C@H](O)CCC[C@H](O)CCC[C@@H](O)C[C@@H](O)C[C@H](O)CCC[C@@H](O)CCC[C@@H](O)C[C@@H](O)CCCCC1` [listing 1 of 2 here] had a half-maximal inhibitory concentration (IC50) of 1.4 µM.

Staying with this test, now noted: Plasmodium falciparum, HB3.
`C/C1=C/C(=O)O[C@H](C(C)(C)C)CCC[C@H](O)CCC[C@H](O)CCC[C@H](O)CCC[C@@H]2C[C@H](C[C@H](O)CCC[C@@H](O)CCC[C@@H](O)C[C@@H](O)CCCCC1)OC(C)(C)O2` yielded an IC50 of 20 µM.

As for `C/C1=C/C(=O)O[C@H](C(C)(C)C)CCC[C@H](O)CCC[C@H](O)CCC[C@H](O)CCC[C@@H](O)C[C@@H](O)C[C@H](O)CCC[C@@H](O)CCC[C@@H]2C[C@H](CCCCC1)OC(C)(C)O2`, the IC50 is 2.3 µM.

For `C/C1=C/C(=O)O[C@H](C(C)(C)C)CCC[C@H](O)CCC[C@H](O)CCC[C@H](O)CCC[C@@H](O)C[C@@H](O)C[C@H](O)CCC[C@@H](O)CCC[C@@H](O)C[C@@H](O)CCCCC1` [listing 2 of 2 here], 2.6 µM corresponded to half-maximal inhibition (IC50).

Regarding `C/C1=C/C(=O)O[C@H](CCC[C@@H](O)CCC[C@@H](O)CCC[C@@H](O)CCC[C@H](O)C(C)(C)C)C[C@@H](O)C[C@H](O)CCC[C@@H](O)CCC[C@@H](O)C[C@@H](O)CCCCC1`, the concentration for half-maximal inhibition (IC50) turned out to be 5.7 µM.

Turning to `C/C1=C/C(=O)O[C@H](C(C)(C)C)CCC[C@H](O)CCC[C@H](O)CCC[C@H](O)CCC[C@@H]2C[C@H](C[C@H](O)CCC[C@@H](O)CCC[C@@H]3C[C@H](CCCCC1)OC(C)(C)O3)OC(C)(C)O2`, half-maximal inhibition (IC50) required 9.7 µM.
